Organism: Rattus norvegicus
Experiment: Open TG-GATES - Regimen: Single
Format: toxicity, organism-based, Sprague-Dawley
Design: regimen Single, gender Male, age 6 weeks
Conditions: in vivo, po, 0 mg/kg, route gavage, dose level Control; for APTT / Bas / Eos / Fbg / Hb / Ht / Lym / MCH / MCHC / Mono / Neu / Plat / RBC / Ret / WBC: tissue Blood; for KIDNEY_L / KIDNEY_R / KIDNEY_TOTAL: tissue Kidney; for LIVER: tissue Liver; for ALP / ALT / AST / BUN / CRE / Ca / Cl / DBIL / GLC / IP / K / LDH / Na / PL / RALB / TBIL / TC / TG / TP / gamma-GTP: tissue Plasma

## O=C(CCCN1CCC(O)(c2ccc(Cl)cc2)CC1)c1ccc(F)cc1 [HALOPERIDOL]
3 h
  TERMINAL_BW: 208.8 g
  APTT: 16.5 s
  Bas: 0%
  Eos: 0%
  Fbg: 202 mg/dL
  Hb: 13.4 g/dL
  Ht: 40.2%
  Lym: 77.8%
  MCH: 21.8 pg
  MCHC: 33.5%
  Mono: 9.2%
  Neu: 13%
  Plat: 94.5 x10_4/uL
  RBC: 616.8 x10_4/ul
  Ret: 8.7%
  WBC: 114.5 x10_2/uL
  KIDNEY_L: 1 g
  KIDNEY_R: 1 g
  KIDNEY_TOTAL: 2 g
  LIVER: 10.1 g
  ALP: 1053.2 IU/L
  ALT: 34.4 IU/L
  AST: 64.4 IU/L
  BUN: 16 mg/dL
  CRE: 0.5 mg/dL
  Ca: 11.4 mg/dL
  Cl: 105 meq/L
  DBIL: 0.006 mg/dL
  GLC: 185.6 mg/dL
  IP: 9.4 mg/dL
  K: 5.2 meq/L
  LDH: 85 IU/L
  Na: 139 meq/L
  PL: 151.4 mg/dL
  RALB: 3.7 g/dL
  TBIL: 0.4 mg/dL
  TC: 82.8 mg/dL
  TG: 63.2 mg/dL
  TP: 5.6 g/dL
  gamma-GTP: 1.4 IU/L
6 h
  TERMINAL_BW: 200.9 g
  APTT: 16.6 s
  Bas: 0%
  Eos: 0.2%
  Fbg: 206.4 mg/dL
  Hb: 13.6 g/dL
  Ht: 40.6%
  Lym: 72%
  MCH: 21.7 pg
  MCHC: 33.4%
  Mono: 5.8%
  Neu: 22%
  Plat: 102.2 x10_4/uL
  RBC: 625.8 x10_4/ul
  Ret: 8.8%
  WBC: 95.9 x10_2/uL
  KIDNEY_L: 0.9 g
  KIDNEY_R: 1 g
  KIDNEY_TOTAL: 1.9 g
  LIVER: 9.3 g
  ALP: 862.2 IU/L
  ALT: 34.8 IU/L
  AST: 62 IU/L
  BUN: 11.4 mg/dL
  CRE: 0.5 mg/dL
  Ca: 10.7 mg/dL
  Cl: 104.8 meq/L
  DBIL: 0.036 mg/dL
  GLC: 175.2 mg/dL
  IP: 10.1 mg/dL
  K: 5.1 meq/L
  LDH: 92.4 IU/L
  Na: 137.6 meq/L
  PL: 142.8 mg/dL
  RALB: 3.7 g/dL
  TBIL: 0.3 mg/dL
  TC: 80.2 mg/dL
  TG: 47.8 mg/dL
  TP: 5.6 g/dL
  gamma-GTP: 1.4 IU/L
9 h
  TERMINAL_BW: 199.3 g
  APTT: 16.7 s
  Bas: 0%
  Eos: 0.8%
  Fbg: 205.4 mg/dL
  Hb: 13.7 g/dL
  Ht: 41%
  Lym: 68.6%
  MCH: 22.1 pg
  MCHC: 33.3%
  Mono: 6.6%
  Neu: 24%
  Plat: 103.6 x10_4/uL
  RBC: 619.2 x10_4/ul
  Ret: 8.3%
  WBC: 96.1 x10_2/uL
  KIDNEY_L: 0.9 g
  KIDNEY_R: 0.9 g
  KIDNEY_TOTAL: 1.8 g
  LIVER: 8.6 g
  ALP: 860.2 IU/L
  ALT: 32.6 IU/L
  AST: 59.8 IU/L
  BUN: 12.2 mg/dL
  CRE: 0.5 mg/dL
  Ca: 10.5 mg/dL
  Cl: 106.2 meq/L
  DBIL: 0.024 mg/dL
  GLC: 188.4 mg/dL
  IP: 10.8 mg/dL
  K: 5.1 meq/L
  LDH: 83.8 IU/L
  Na: 138 meq/L
  PL: 134.4 mg/dL
  RALB: 3.8 g/dL
  TBIL: 0.4 mg/dL
  TC: 76.8 mg/dL
  TG: 35.4 mg/dL
  TP: 5.5 g/dL
  gamma-GTP: 1.8 IU/L
24 h
  TERMINAL_BW: 214.4 g
  APTT: 16.2 s
  Bas: 0%
  Eos: 0.8%
  Fbg: 205.8 mg/dL
  Hb: 13.3 g/dL
  Ht: 39.3%
  Lym: 75.4%
  MCH: 22 pg
  MCHC: 33.9%
  Mono: 6.8%
  Neu: 17%
  Plat: 107.6 x10_4/uL
  RBC: 605.8 x10_4/ul
  Ret: 8.9%
  WBC: 82.8 x10_2/uL
  KIDNEY_L: 0.9 g
  KIDNEY_R: 1 g
  KIDNEY_TOTAL: 1.9 g
  LIVER: 10.6 g
  ALP: 1093.2 IU/L
  ALT: 43 IU/L
  AST: 64.8 IU/L
  BUN: 19.2 mg/dL
  CRE: 0.6 mg/dL
  Ca: 11 mg/dL
  Cl: 104.6 meq/L
  DBIL: 0.028 mg/dL
  GLC: 185.4 mg/dL
  IP: 8.2 mg/dL
  K: 4.9 meq/L
  LDH: 82.6 IU/L
  Na: 138.8 meq/L
  PL: 165.4 mg/dL
  RALB: 3.7 g/dL
  TBIL: 0.4 mg/dL
  TC: 87.2 mg/dL
  TG: 94.8 mg/dL
  TP: 5.7 g/dL

From ChEMBL document CHEMBL3885861, “Open TG-GATES”
